Consider 5 compounds from US8283339B2, “Vinyl phosphonate lysophosphatidic acid receptor antagonists” (University of Virginia Patent Foundation, priority 2006, dated 2012).

Like-named read-outs stand apart in the source and are kept apart here.

For assay [1], the system named is osteo-tropic subclone of the human breast CA line, MDA MB-231. The note with it: athymic (nude) mice injected with MDA MB-231 subclone; as described in Boucharaba et al. (2006); cited from earlier work.
Assay [2] concerns LPA inhibition of adenylyl cyclase activation in rat glioma C62B cells. Briefly: LPA-driven adenylyl cyclase inhibition in rat glioma cells (relief by antagonist). As to conditions: isoproterenol-stimulated cAMP accumulation, all in a dose-dependent manner, FIG. 3. In kind it is cell-based. An excerpt: FIG. 3 is a graphic representation of LPA-driven adenylyl cyclase inhibition in C6 glioma cells.
Rat glioma C62B cells accumulate cAMP in response to isoproterenol, and this stimulation of adenylyl cyclase is blocked by LPA. As shown, the LPA inhibition of adenylyl cyclase activation is relieved by addition of VPC51299, VPC52172, VPC52173, and VPC52178, all in a dose-dependent manner. Results are illustrated in FIG. 3.
A general note: Cyclic AMP is a second messenger, typically raised through Gs and lowered through Gi signalling.

Assay [3] relates to Adult male Sprague Dawley rats. Briefly: Chronic constriction injury (CCI) model of neuropathic pain: thermal hyperalgesia and mechanical allodynia. In kind it is in vivo, rat. The source says: The chronic constriction injury (CCI) model of neuropathic pain (Bennett and Xie, Pain, 33 p 87-107 (1988)) was used to assess the efficacy of test compound VPC51299 in relieving thermal hyperalgesia and mechanical allodynia. Adult male Sprague Dawley rats were anesthetized and their sciatic nerves exposed at the level of mid-thigh. Four loose ligations of chromic gut suture were placed around the sciatic nerve and the wound was closed. For sham surgeries, the sciatic nerve was mobilized and the wound closed without ligation. The animals' responses to mechanical and thermal stimuli were assessed prior to CCI and at days 1, 3, 5, 7, and 14 after CCI.
Thermal hyperalgesia was measured using a Plantar Test Apparatus (IITC Inc, Woodland Hills, Calif.). Rats were placed on a warmed glass surface, allowed to acclimate, and a thermal stimulus was applied to the plantar surface of the hind paw. Paw withdrawal latency (PWL) is defined as the time from stimulus application to paw withdrawal. Results are illustrated in FIG. 9A.
Mechanical allodynia was measured two ways. First, a size 5.18 Von Frey monofilament (corresponding to 15.0 g.) was applied to the plantar surface of the hind paw (Touch Test Sensory Evaluator Kit from Stoelting Co., Wood Dale, Ill.). The number of paw withdrawals out of 10 three second trials was recorded. Results are illustrated in FIG. 9B. Second, the maximum withdrawal threshold was assessed using an electronic von Frey Anesthesiometer (IITC Inc, Woodland Hills, Calif.). Force was applied to the plantar surface of the hindpaw until the rat withdrew its paw. The maximum force applied to the paw before withdrawal was recorded. Results are illustrated in FIG. 9C.

The test system of assay [4] is osteo-tropic subclone of the human breast CA line, MDA MB-231. The assay can be described thus: Lytic bone metastasis in athymic (nude) mice. Format: in vivo, mouse. The note with it: athymic (nude) mice injected with MDA MB-231 subclone; treated for two weeks; FIG. 13. Here is the method: Mice are tested for assessing lytic bone metastasis. Athymic (nude) mice were injected with a osteo-tropic subclone of the human breast CA line, MDA MB-231. After two weeks the bones are scanned to assess the cancer in the bone. The cancer is treated for two weeks and the lesions are imaged. […] 103, pp. 9643-9648. The results are illustrated in FIG. 13.

As to `Cc1noc(-c2ccc(CSCCC(=O)O)cc2)c1NC(=O)OC(C)c1ccccc1Cl` (stereo not shown) [Kil6425], in assay [1], the “size of lytic bone lesions in treated mice” value is reported as “significantly smaller”.
Turning to `CCCCCCCCCCCCCCCC(=O)N[C@@H](/C=C/P(=O)(O)O)Cc1ccc(OCc2cc(OCC(F)(F)F)ccn2)cc1` [VPC51299, (3R)-(3-Hexadecanoylamino-4-{4-[4-(2,2,2-trifluoro-ethoxy)-pyridin-2-ylmethoxy]-phenyl}-trans-but-1-enyl)-phosphonic Acid], the “relief of LPA inhibition of adenylyl cyclase activation” value in assay [2] was “relieved”. In addition, the “paw withdrawal latency (thermal stimulus), slower than vehicle treated rats” value in assay [3] (day 5, after 5 days of treatment, difference vs vehicle treated rats, Plantar Test) came out at 3.1 s. Also, in assay [3] (day 5, after 5 days of treatment, electronic von Frey Anesthesiometer, difference vs vehicle treated rats), the “withdrawal threshold, higher than vehicle treated rats” value was 4.0 g. For the same compound, the “number of paw withdrawals (out of 10 trials), fewer than vehicle treated rats” value in assay [3] (day 5, after 5 days of treatment, size 5.18 Von Frey monofilament (15.0 g), difference vs vehicle treated rats) amounted to 3.2 times. Besides, in assay [3] (rats with sciatic nerve ligation (CCI), FIGS. 9A-9C), the “efficacy in relieving thermal hyperalgesia and mechanical allodynia associated with CCI” value was “effective in relieving some of the thermal hyperalgesia and mechanical allodynia”. In addition, the “size of lytic bone lesions in treated mice” value in assay [4] was “significantly smaller”.
`CCCCCCCCCCCC(=O)N[C@@H](/C=C/P(=O)(O)O)Cc1ccc(OCc2cc(OCC(F)(F)F)ccn2)cc1` [VPC52172, (3R)-(3-Dodecanoylamino-4-{4-[4-(2,2,2-trifluoro-ethoxy)-pyridin-2-ylmethoxy]-phenyl}-trans-but-1-enyl)-phosphonic Acid]: the “relief of LPA inhibition of adenylyl cyclase activation” value in assay [2] is given as “relieved”.
`CCCCCCCCCC(=O)N[C@@H](/C=C/P(=O)(O)O)Cc1ccc(OCc2cc(OCC(F)(F)F)ccn2)cc1` [VPC52173, (3R)-(3-Decanoylamino-4-{4-[4-(2,2,2-trifluoro-ethoxy)-pyridin-2-ylmethoxy]-phenyl}-trans-but-1-enyl)-phosphonic Acid]: in assay [2], the “relief of LPA inhibition of adenylyl cyclase activation” value is “relieved”.
For the compound `CCCCCCCC(=O)N[C@@H](/C=C/P(=O)(O)O)Cc1ccc(OCc2cc(OCC(F)(F)F)ccn2)cc1` [VPC52178, (1R)-(3-octanoylamino-4-{4-[4-(2,2,2-trifluoro-ethoxy)-pyridin-2-ylmethoxy]-phenyl}-trans-but-1-enyl)-phosphonic Acid], in assay [2], the “relief of LPA inhibition of adenylyl cyclase activation” value is recorded as “relieved”.
